How the values were obtained:
[1] = system: 60 human tumor cell lines; experiment: NCI screening of antitumor activity in vitro in 60 human tumor cell lines; assay type: cell-based
Source text: The experimental results refer to FIGS. 1-12.

[2] = system: 10 human tumor cell lines; experiment: Antitumor activity screening in 10 human tumor cell lines; assay type: cell-based
Source text: In the invention, the compounds, MTC-301, MTC-302, MTC-303, MTC-304, MTC-305, MTC-306, MTC-307, MDC-308, MDC-403, MDC-404, MDC-405. MDC-406, MDC-407 and MDC-408 were screened their antitumor activity in 10 human tumor cell lines. […] The experimental results refer to FIGS. 13-16.

[3] = system: human breast cancer line MDA-MB-231; experiment: Tumor growth inhibition in nude mice xenograft model, MDA-MB-231
Method: • 1. […] Drug administration dose were set as: 10 mg/kg, 15 mg/kg, and 20 mk/kg, drug administration volume was 0.2 mL/20 g. • 2. […] MDA [Peptide (P) 0.54 mg/mL (0.001M), Example 10], a colorless and clear liquid, was prepared by the commission, can be directly used after the repackaging in a sterile condition, stored at 4° C. […] Certificate NO. […] SYSK (BeiJing) 2004-0001. Experiment Methods:
The mice were divided into groups and administrated drug after 11 days.
The mice were divided into eight groups, each group had 6-8 mice. The groups contained Negative control. […] After grouping, all mice were administrated with drug by intraperitoneal injection once a day depends on their body weight.
Other groups were administered with drugs for 24 times successively. The experiment was completed 24 h after the last administration.
The mice were sacrificed, and tumors were isolated and their weight was measured, and the inhibition rate of tumor growth by drugs were calculated. […] Calculation methods and formula were omitted.

Compound | 50% growth inhibition (GI50) activity [2] | also measured
CC(=O)O[C@H]1C(=O)[C@@]2(C)[C@H]([C@H](OC(=O)c3ccccc3)[C@]3(O)C[C@H](OC(=O)[C@H](OC(=O)CCC(=O)NCCCCC(NC(=O)CC[C@H](NC(=O)C(C)NC(=O)c4ccc5ccccc5n4)C(N)=O)C(N)=O)[C@@H](NC(=O)c4ccccc4)c4ccccc4)C(C)=C1C3(C)C)[C@]1(OC(C)=O)CO[C@@H]1C[C@@H]2O (some centres unmarked) [MTC-213] | – | 50% growth inhibition (GI50) activity [1]: in the same magnitude range as paclitaxel
CC(=O)O[C@H]1C(=O)[C@@]2(C)[C@H]([C@H](OC(=O)c3ccccc3)[C@]3(O)C[C@H](OC(=O)[C@H](OC(=O)CCC(=O)NCCCCC(NC(=O)CC[C@H](NC(=O)C(C)NC(=O)/C=C/c4cccs4)C(N)=O)C(N)=O)[C@@H](NC(=O)c4ccccc4)c4ccccc4)C(C)=C1C3(C)C)[C@]1(OC(C)=O)CO[C@@H]1C[C@@H]2O (some centres unmarked) [MTC-219] | – | 50% growth inhibition (GI50) activity [1]: in the same magnitude range as paclitaxel
CC(=O)O[C@@]12CO[C@@H]1C[C@H](O)[C@@]1(C)C(=O)[C@H](O)C3=C(C)[C@@H](OC(=O)[C@H](OC(=O)CCC(=O)NCCCCC(NC(=O)CC[C@H](NC(=O)C(C)NC(=O)/C=C/c4ccc(F)cc4F)C(N)=O)C(N)=O)[C@@H](NC(=O)OC(C)(C)C)c4ccccc4)C[C@@](O)([C@@H](OC(=O)c4ccccc4)[C@H]21)C3(C)C (some centres unmarked) [MDC-403] | in the same magnitude range as paclitaxel or docetaxel | –
CC(=O)O[C@H]1C(=O)[C@@]2(C)[C@H]([C@H](OC(=O)c3ccccc3)[C@]3(O)C[C@H](OC(=O)[C@H](OC(=O)CCC(=O)NCCCCC(NC(=O)CC[C@H](NC(=O)C(C)NC(=O)/C=C/c4ccc(F)cc4Cl)C(N)=O)C(N)=O)[C@@H](NC(=O)c4ccccc4)c4ccccc4)C(C)=C1C3(C)C)[C@]1(OC(C)=O)CO[C@@H]1C[C@@H]2O (some centres unmarked) [MTC-305] | in the same magnitude range as paclitaxel or docetaxel | –
CC(=O)O[C@H]1C(=O)[C@@]2(C)[C@H]([C@H](OC(=O)c3ccccc3)[C@]3(O)C[C@H](OC(=O)[C@H](OC(=O)CCC(=O)NCCCCC(NC(=O)CC[C@H](NC(=O)C(C)NC(=O)/C=C/c4ccc(F)c(F)c4)C(N)=O)C(N)=O)[C@@H](NC(=O)c4ccccc4)c4ccccc4)C(C)=C1C3(C)C)[C@]1(OC(C)=O)CO[C@@H]1C[C@@H]2O (some centres unmarked) [MTC-308] | in the same magnitude range as paclitaxel or docetaxel | –
CC(=O)O[C@H]1C(=O)[C@@]2(C)[C@H]([C@H](OC(=O)c3ccccc3)[C@]3(O)C[C@H](OC(=O)[C@H](OC(=O)CCC(=O)NCCCCC(NC(=O)CC[C@H](NC(=O)C(C)NC(=O)/C=C/c4cccc(F)c4)C(N)=O)C(N)=O)[C@@H](NC(=O)c4ccccc4)c4ccccc4)C(C)=C1C3(C)C)[C@]1(OC(C)=O)CO[C@@H]1C[C@@H]2O (some centres unmarked) [MTC-307] | in the same magnitude range as paclitaxel or docetaxel | –
CC(=O)O[C@H]1C(=O)[C@@]2(C)[C@H]([C@H](OC(=O)c3ccccc3)[C@]3(O)C[C@H](OC(=O)[C@H](OC(=O)CCC(=O)NCCCCC(NC(=O)CC[C@H](NC(=O)C(C)NC(=O)COc4cccc5ccccc45)C(N)=O)C(N)=O)[C@@H](NC(=O)c4ccccc4)c4ccccc4)C(C)=C1C3(C)C)[C@]1(OC(C)=O)CO[C@@H]1C[C@@H]2O (some centres unmarked) [MTC-233] | – | 50% growth inhibition (GI50) activity [1]: in the same magnitude range as paclitaxel
CC(=O)O[C@H]1C(=O)[C@@]2(C)[C@H]([C@H](OC(=O)c3ccccc3)[C@]3(O)C[C@H](OC(=O)[C@H](OC(=O)CCC(=O)NCCCCC(NC(=O)CC[C@H](NC(=O)C(C)NC(=O)/C=C/c4ccc(C)cc4)C(N)=O)C(N)=O)[C@@H](NC(=O)c4ccccc4)c4ccccc4)C(C)=C1C3(C)C)[C@]1(OC(C)=O)CO[C@@H]1C[C@@H]2O (some centres unmarked) [MTC-302] | in the same magnitude range as paclitaxel or docetaxel | 50% growth inhibition (GI50) activity [1]: in the same magnitude range as paclitaxel
CC(=O)O[C@@]12CO[C@@H]1C[C@H](O)[C@@]1(C)C(=O)[C@H](O)C3=C(C)[C@@H](OC(=O)[C@H](OC(=O)CCC(=O)NCCCCC(NC(=O)CC[C@H](NC(=O)C(C)NC(=O)/C=C/c4ccc(F)cc4)C(N)=O)C(N)=O)[C@@H](NC(=O)OC(C)(C)C)c4ccccc4)C[C@@](O)([C@@H](OC(=O)c4ccccc4)[C@H]21)C3(C)C (some centres unmarked) [MDC-406] | in the same magnitude range as paclitaxel or docetaxel | –
CC(=O)O[C@H]1C(=O)[C@@]2(C)[C@H]([C@H](OC(=O)c3ccccc3)[C@]3(O)C[C@H](OC(=O)[C@H](OC(=O)CCC(=O)NCCCCC(NC(=O)CC[C@H](NC(=O)C(C)NC(=O)/C=C/c4ccc(F)cc4F)C(N)=O)C(N)=O)[C@@H](NC(=O)c4ccccc4)c4ccccc4)C(C)=C1C3(C)C)[C@]1(OC(C)=O)CO[C@@H]1C[C@@H]2O (some centres unmarked) [MTC-303] | in the same magnitude range as paclitaxel or docetaxel | –
CC(=O)O[C@@]12CO[C@@H]1C[C@H](O)[C@@]1(C)C(=O)[C@H](O)C3=C(C)[C@@H](OC(=O)[C@H](OC(=O)CCC(=O)NCCCCC(NC(=O)CC[C@H](NC(=O)C(C)NC(=O)/C=C/c4ccc(Cl)cc4F)C(N)=O)C(N)=O)[C@@H](NC(=O)OC(C)(C)C)c4ccccc4)C[C@@](O)([C@@H](OC(=O)c4ccccc4)[C@H]21)C3(C)C (some centres unmarked) [MDC-404] | in the same magnitude range as paclitaxel or docetaxel | –
CC(NC(=O)/C=C/c1ccc(Cl)cc1)C(=O)N[C@@H](CCC(=O)NC(CCCCN)C(N)=O)C(N)=O (some centres unmarked) [MDA] | – | Tumor growth rate (in words) ([3]; MDA 0.54 mg/mL × 24): slower than the tumor growth rate of the negative control group; RTV ([3]; MDA 0.54 mg/mL × 24, i.p.): 15.06 ± 5.292; T/C ([3]; MDA 0.54 mg/mL × 24, i.p.): 83.5%; TGI ([3]; MDA 0.54 mg/mL × 24, i.p.): 30.3%; Tumor volume Beginning ([3]; MDA 0.54 mg/mL × 24, i.p.): 141 ± 61.1 mm^3; Tumor volume End ([3]; MDA 0.54 mg/mL × 24, i.p.): 1898 ± 775.4 mm^3; Tumor weight ([3]; MDA 0.54 mg/mL × 24, i.p.): 1.98 ± 0.744 g
CC(=O)O[C@@]12CO[C@@H]1C[C@H](O)[C@@]1(C)C(=O)[C@H](O)C3=C(C)[C@@H](OC(=O)[C@H](OC(=O)CCC(=O)NCCCCC(NC(=O)CC[C@H](NC(=O)C(C)NC(=O)/C=C/c4cccc(F)c4)C(N)=O)C(N)=O)[C@@H](NC(=O)OC(C)(C)C)c4ccccc4)C[C@@](O)([C@@H](OC(=O)c4ccccc4)[C@H]21)C3(C)C (some centres unmarked) [MDC-407] | in the same magnitude range as paclitaxel or docetaxel | –
CC(=O)O[C@@]12CO[C@@H]1C[C@H](O)[C@@]1(C)C(=O)[C@H](O)C3=C(C)[C@@H](OC(=O)[C@H](OC(=O)CCC(=O)NCCCCC(NC(=O)CC[C@H](NC(=O)C(C)NC(=O)/C=C/c4ccc(Cl)cc4)C(N)=O)C(N)=O)[C@@H](NC(=O)OC(C)(C)C)c4ccccc4)C[C@@](O)([C@@H](OC(=O)c4ccccc4)[C@H]21)C3(C)C (some centres unmarked) [MDC-400] | – | 50% growth inhibition (GI50) activity [1]: in the same magnitude range as paclitaxel
CC(=O)O[C@H]1C(=O)[C@@]2(C)[C@H]([C@H](OC(=O)c3ccccc3)[C@]3(O)C[C@H](OC(=O)[C@H](OC(=O)CCC(=O)NCCCCC(NC(=O)CC[C@H](NC(=O)C(C)NC(=O)/C=C/c4ccc(Cl)cc4F)C(N)=O)C(N)=O)[C@@H](NC(=O)c4ccccc4)c4ccccc4)C(C)=C1C3(C)C)[C@]1(OC(C)=O)CO[C@@H]1C[C@@H]2O (some centres unmarked) [MTC-304] | in the same magnitude range as paclitaxel or docetaxel | –
CC(=O)O[C@H]1C(=O)[C@@]2(C)[C@H]([C@H](OC(=O)c3ccccc3)[C@]3(O)C[C@H](OC(=O)[C@H](OC(=O)CCC(=O)NCCCCC(NC(=O)CC[C@H](NC(=O)C(C)NC(=O)/C=C/c4ccc(O)cc4)C(N)=O)C(N)=O)[C@@H](NC(=O)c4ccccc4)c4ccccc4)C(C)=C1C3(C)C)[C@]1(OC(C)=O)CO[C@@H]1C[C@@H]2O (some centres unmarked) [MTC-301] | in the same magnitude range as paclitaxel or docetaxel | –
CC(=O)O[C@@]12CO[C@@H]1C[C@H](O)[C@@]1(C)C(=O)[C@H](O)C3=C(C)[C@@H](OC(=O)[C@H](OC(=O)CCC(=O)NCCCCC(NC(=O)CC[C@H](NC(=O)C(C)NC(=O)/C=C/c4ccc(F)c(F)c4)C(N)=O)C(N)=O)[C@@H](NC(=O)OC(C)(C)C)c4ccccc4)C[C@@](O)([C@@H](OC(=O)c4ccccc4)[C@H]21)C3(C)C (some centres unmarked) [MDC-408] | in the same magnitude range as paclitaxel or docetaxel | –
CC(=O)O[C@H]1C(=O)[C@@]2(C)[C@H]([C@H](OC(=O)c3ccccc3)[C@]3(O)C[C@H](OC(=O)[C@H](OC(=O)CCC(=O)NCCCCC(NC(=O)CC[C@H](NC(=O)C(C)NC(=O)/C=C/c4ccc(F)cc4)C(N)=O)C(N)=O)[C@@H](NC(=O)c4ccccc4)c4ccccc4)C(C)=C1C3(C)C)[C@]1(OC(C)=O)CO[C@@H]1C[C@@H]2O (some centres unmarked) [MTC-306] | in the same magnitude range as paclitaxel or docetaxel | –
CC(=O)O[C@@]12CO[C@@H]1C[C@H](O)[C@@]1(C)C(=O)[C@H](O)C3=C(C)[C@@H](OC(=O)[C@H](OC(=O)CCC(=O)NCCCCC(NC(=O)CC[C@H](NC(=O)C(C)NC(=O)/C=C/c4ccc(F)cc4Cl)C(N)=O)C(N)=O)[C@@H](NC(=O)OC(C)(C)C)c4ccccc4)C[C@@](O)([C@@H](OC(=O)c4ccccc4)[C@H]21)C3(C)C (some centres unmarked) [MDC-405] | in the same magnitude range as paclitaxel or docetaxel | –

— patent US9085605B2, “Chemical synthesis and anti-tumor and anti-metastatic effects of dual functional conjugate” (Shenzhen Salubris Pharmaceuticals Co., Ltd., priority 2010, dated 2015)
